# In PubChem BioAssay (NCI):
#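 The compound was tested at five concentrations on cells cultured in 96-well plates, with a 48-hour exposure period. Abbreviation: GI50, concentration required for 50% inhibition of growth. The concentration for full growth arrest is given as TGI.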
# Columns and labels:
# Assay in all cases: NCI tumour cell line growth inhibition, 48 h
# SK-MEL-2 melanoma = tested on: SK-MEL-2 melanoma
# SF-295 CNS = tested on: SF-295 CNS
# EKVX NSCLC = tested on: EKVX NSCLC
# NCI-H23 lung = tested on: NCI-H23 lung
# TK-10 renal = tested on: TK-10 renal
# HT29 colon = tested on: HT29 colon
# HOP-92 NSCLC = tested on: HOP-92 NSCLC
# T-47D breast = tested on: T-47D breast
# RXF 393 renal = tested on: RXF 393 renal
# NCI/ADR-RES ovarian = tested on: NCI/ADR-RES ovarian
# MDA-MB-435 = tested on: MDA-MB-435
# IGROV1 ovarian = tested on: IGROV1 ovarian
# ACHN renal = tested on: ACHN renal
# A549 NSCLC = tested on: A549 NSCLC
# NCI-H226 lung = tested on: NCI-H226 lung
# HCT-15 colon = tested on: HCT-15 colon
# NCI-H522 lung = tested on: NCI-H522 lung
# OVCAR-5 ovarian = tested on: OVCAR-5 ovarian
# HCT-116 colon = tested on: HCT-116 colon
# SN12C renal = tested on: SN12C renal
# HS 578T breast = tested on: HS 578T breast
# MALME-3M melanoma = tested on: MALME-3M melanoma
# A498 renal = tested on: A498 renal
# SF-539 CNS = tested on: SF-539 CNS
# 786-0 renal = tested on: 786-0 renal
# MCF7 breast = tested on: MCF7 breast
# HL-60(TB) leukemia = tested on: HL-60(TB) leukemia
# CCRF-CEM leukemia = tested on: CCRF-CEM leukemia
# UACC-62 melanoma = tested on: UACC-62 melanoma
# OVCAR-8 ovarian = tested on: OVCAR-8 ovarian
# SNB-19 CNS = tested on: SNB-19 CNS
# HCC-2998 colon = tested on: HCC-2998 colon
# SF-268 CNS = tested on: SF-268 CNS
# PC-3 prostate = tested on: PC-3 prostate
# DU-145 prostate = tested on: DU-145 prostate
# UO-31 renal = tested on: UO-31 renal
# MDA-MB-231 breast = tested on: MDA-MB-231 breast
# RPMI-8226 leukemia = tested on: RPMI-8226 leukemia
# SR leukemia = tested on: SR leukemia
# COLO 205 colon = tested on: COLO 205 colon
# SK-MEL-28 melanoma = tested on: SK-MEL-28 melanoma
# UACC-257 melanoma = tested on: UACC-257 melanoma
# SW-620 colon = tested on: SW-620 colon
# SK-OV-3 ovarian = tested on: SK-OV-3 ovarian
# SK-MEL-5 melanoma = tested on: SK-MEL-5 melanoma
# CAKI-1 renal = tested on: CAKI-1 renal
# LOX IMVI melanoma = tested on: LOX IMVI melanoma
# M14 melanoma = tested on: M14 melanoma
# SNB-75 CNS = tested on: SNB-75 CNS
# U251 CNS = tested on: U251 CNS
# OVCAR-3 ovarian = tested on: OVCAR-3 ovarian
# MOLT-4 leukemia = tested on: MOLT-4 leukemia
# OVCAR-4 ovarian = tested on: OVCAR-4 ovarian
# NCI-H460 lung = tested on: NCI-H460 lung
# HOP-62 NSCLC = tested on: HOP-62 NSCLC
# KM12 colon = tested on: KM12 colon
structure (smiles),measurement,setting,value
N#Cc1c(N)oc(-c2cccc([N+](=O)[O-])c2)c1C#N,TGI,SK-MEL-2 melanoma,> 100 µM
same,TGI,SF-295 CNS,> 100 µM
same,TGI,EKVX NSCLC,> 100 µM
same,TGI,NCI-H23 lung,44 µM
same,TGI,TK-10 renal,49.7 µM
same,TGI,HT29 colon,37.6 µM
same,TGI,HOP-92 NSCLC,37.7 µM
same,TGI,T-47D breast,> 100 µM
same,TGI,RXF 393 renal,57.3 µM
same,TGI,NCI/ADR-RES ovarian,> 100 µM
same,TGI,MDA-MB-435,> 100 µM
same,TGI,IGROV1 ovarian,65.3 µM
same,TGI,ACHN renal,34.8 µM
same,TGI,A549 NSCLC,> 100 µM
same,TGI,NCI-H226 lung,> 100 µM
same,TGI,HCT-15 colon,30.7 µM
same,TGI,NCI-H522 lung,59.1 µM
same,TGI,OVCAR-5 ovarian,> 100 µM
same,TGI,HCT-116 colon,> 100 µM
same,TGI,SN12C renal,90.6 µM
same,TGI,HS 578T breast,> 100 µM
same,TGI,MALME-3M melanoma,61.6 µM
same,TGI,A498 renal,61.7 µM
same,TGI,SF-539 CNS,57.2 µM
same,TGI,786-0 renal,68.3 µM
same,TGI,MCF7 breast,> 100 µM
same,TGI,HL-60(TB) leukemia,65.1 µM
same,TGI,CCRF-CEM leukemia,> 100 µM
same,TGI,UACC-62 melanoma,> 100 µM
same,TGI,OVCAR-8 ovarian,44.1 µM
same,TGI,SNB-19 CNS,74.6 µM
same,TGI,HCC-2998 colon,33.6 µM
same,TGI,SF-268 CNS,> 100 µM
same,TGI,PC-3 prostate,> 100 µM
same,TGI,DU-145 prostate,> 100 µM
same,TGI,UO-31 renal,30.8 µM
same,TGI,MDA-MB-231 breast,> 100 µM
same,TGI,RPMI-8226 leukemia,59.8 µM
same,TGI,SR leukemia,> 100 µM
same,TGI,COLO 205 colon,44.7 µM
same,TGI,SK-MEL-28 melanoma,39.5 µM
same,TGI,UACC-257 melanoma,48.9 µM
same,TGI,SW-620 colon,62 µM
same,TGI,SK-OV-3 ovarian,> 100 µM
same,TGI,SK-MEL-5 melanoma,37.7 µM
same,TGI,CAKI-1 renal,43.6 µM
same,TGI,LOX IMVI melanoma,85.6 µM
same,TGI,M14 melanoma,> 100 µM
same,TGI,SNB-75 CNS,98.2 µM
same,TGI,U251 CNS,94.5 µM
Cc1cc(NCc2cc(Nc3ccnc4cc(Cl)ccc34)ccc2F)nc(N2CCCC2)n1,GI50,OVCAR-3 ovarian,1.63 µM
same,TGI,OVCAR-3 ovarian,3.22 µM
same,GI50,EKVX NSCLC,2.43 µM
same,TGI,EKVX NSCLC,11.1 µM
same,GI50,MOLT-4 leukemia,1.95 µM
same,TGI,MOLT-4 leukemia,14.3 µM
same,GI50,NCI-H23 lung,1.83 µM
same,TGI,NCI-H23 lung,4.68 µM
same,GI50,TK-10 renal,1.94 µM
same,TGI,TK-10 renal,3.61 µM
same,GI50,HT29 colon,0.877 µM
same,TGI,HT29 colon,2.27 µM
same,GI50,OVCAR-4 ovarian,1.27 µM
same,TGI,OVCAR-4 ovarian,4.54 µM
same,GI50,HOP-92 NSCLC,0.763 µM
same,TGI,HOP-92 NSCLC,2.61 µM
same,GI50,RXF 393 renal,1.45 µM
same,TGI,RXF 393 renal,2.99 µM
same,GI50,MDA-MB-435,1.61 µM
same,TGI,MDA-MB-435,3.01 µM
same,GI50,IGROV1 ovarian,1.69 µM
same,TGI,IGROV1 ovarian,4.2 µM
same,GI50,A549 NSCLC,2.22 µM
same,TGI,A549 NSCLC,6.02 µM
same,GI50,HS 578T breast,1.61 µM
same,TGI,HS 578T breast,4.6 µM
same,GI50,A498 renal,1.44 µM
same,TGI,A498 renal,3.32 µM
same,GI50,CCRF-CEM leukemia,0.353 µM
same,TGI,CCRF-CEM leukemia,> 100 µM
same,GI50,NCI-H460 lung,1.35 µM
same,TGI,NCI-H460 lung,2.96 µM
same,GI50,HOP-62 NSCLC,1.42 µM
same,TGI,HOP-62 NSCLC,3.14 µM
same,GI50,SNB-19 CNS,2.82 µM
same,TGI,SNB-19 CNS,10.1 µM
same,GI50,KM12 colon,1.97 µM
same,TGI,KM12 colon,4.53 µM
same,GI50,DU-145 prostate,1.94 µM
same,TGI,DU-145 prostate,4.46 µM
same,GI50,UO-31 renal,1.27 µM
same,TGI,UO-31 renal,2.86 µM
same,GI50,SR leukemia,0.265 µM
same,TGI,SR leukemia,1.12 µM
same,GI50,UACC-257 melanoma,1.87 µM
same,TGI,UACC-257 melanoma,3.53 µM
same,GI50,SW-620 colon,1.23 µM
same,TGI,SW-620 colon,2.95 µM
same,GI50,SK-OV-3 ovarian,2.04 µM
same,TGI,SK-OV-3 ovarian,5.09 µM
same,GI50,SK-MEL-5 melanoma,1.76 µM
same,TGI,SK-MEL-5 melanoma,3.19 µM
same,GI50,CAKI-1 renal,1.47 µM
same,TGI,CAKI-1 renal,2.98 µM
same,GI50,U251 CNS,1.73 µM
same,TGI,U251 CNS,3.32 µM
